The values that follow come from ChEMBL document CHEMBL4325848, “Quinoline and quinolone dimers and their biological activities: An overview” (Eur J Med Chem, 2019).

A word on the IC50: it is the concentration that inhibits the measured activity by half. Lower therefore signals higher potency. As usually defined, the CC50 is the concentration at which the toxic effect on the cells reaches its halfway point. Low values mean harm at low concentration, high ones better tolerance by the cells. As usually defined, the MIC is the lowest concentration found to suppress growth. Lower therefore signals greater potency. Usually GI50 stands for the concentration at which growth is held to half of that of the control. A lower GI50 goes with greater sensitivity of the cells.

The subject of data set [1] is Plasmodium falciparum. Description: Antiprotozoal activity against chloroquine-sensitive Plasmodium falciparum D6. It is filed as functional, organism-based.
Data set [2] concerns Plasmodium falciparum. Description: Antiprotozoal activity against chloroquine-resistant Plasmodium falciparum W2. The class given is functional, organism-based.
The test system of data set [3] is Plasmodium falciparum. Kind of data set: Antimalarial activity against chloroquine-resistant Plasmodium falciparum FcB1. It is filed as functional, organism-based. Conditions: FcB1/Columbia.
Data set [4] can be described thus: Cytotoxicity against human MRC5 cells. The class given is cell-based.
A short description of data set [5]: Selectivity index, ratio of CC50 for human MRC5 cells to IC50 for chloroquine-resistant Plasmodium falciparum FcB1. The class given is toxicity. Conditions: read-out: Ratio CC50/IC50.
Data set [6] addresses Histone-lysine N-methyltransferase, H3 lysine-79 specific (Homo sapiens, UniProt Q8TEK3). Description: Inhibition of DOT1L (unknown origin).
Data set [7] deals with Staphylococcus aureus. Description: Antibacterial activity against Staphylococcus aureus. The class given is functional.
The next data set deals with Klebsiella pneumoniae. Description: Antibacterial activity against Klebsiella pneumoniae. The class given is functional.
In a further data set the test system is Shigella. Description: Antibacterial activity against Shigella. It is filed as functional.
In another data set the test system is Enterococcus. Description: Antibacterial activity against Enterococcus. The class given is functional.
For a further data set, the system named is Proteus. Description: Antibacterial activity against Proteus. The class given is functional.
The subject of data set [8] is Escherichia coli. Description: Antibacterial activity against Escherichia coli. The class given is functional.
Data set [9] deals with Plasmodium falciparum. Kind of data set: Antimalarial activity against chloroquine-resistant Plasmodium falciparum K1. It is filed as functional, organism-based.
Data set [10] relates to Plasmodium falciparum. Kind of data set: Antimalarial activity against chloroquine-sensitive Plasmodium falciparum 3D7. The class given is functional, organism-based.
Another data set concerns HL-60. Kind of data set: Antiproliferative activity against human HL60 cells. It is filed as functional, cell-based.
For the next data set, the system named is Plasmodium vinckei. Kind of data set: Antimalarial activity against Plasmodium vinckei infected in ip dosed mouse. It is filed as functional.
The subject of another data set is Kasumi 1. Description: Antiproliferative activity against human Kasumi-1 cells. It is filed as functional, cell-based.
The test system of the next data set is MV4-11. Description: Antiproliferative activity against human MV4-11 cells. The class given is functional, cell-based.
The test system of a further data set is Plasmodium berghei. Kind of data set: Antimalarial activity against Plasmodium berghei N/13 infected in MF1 mouse. It is filed as functional. Conditions: read-out: ID50 (the source's name).
The test system of data set [11] is Plasmodium falciparum. Kind of data set: Antimalarial activity against chloroquine-sensitive Plasmodium falciparum D10. The class given is functional, organism-based.
The subject of data set [12] is Plasmodium falciparum. Description: Antimalarial activity against pfmdr1-overexpressing chloroquine-resistant Plasmodium falciparum K1mef. The class given is functional, organism-based. Conditions: K1 mef.
For data set [13], the system named is Plasmodium falciparum. Kind of data set: Potency index, ratio of chloroquine IC50 to compound IC50 for antimalarial activity against chloroquine-resistant Plasmodium falciparum K1. It is filed as functional.
The test system of another data set is MDA-MB-468. Kind of data set: Antiproliferative activity against human MDA-MB-468 cells. The class given is functional.
In a further data set the test system is MCF7. Kind of data set: Antiproliferative activity against human MCF7 cells. The class given is functional.
The test system of data set [14] is Staphylococcus aureus. Description: Antibacterial activity against Staphylococcus aureus ATCC 6538 assessed as zone of inhibition at 100 ug/disc. It is filed as functional. Conditions: read-out: DIZ.
Data set [15] deals with Staphylococcus aureus. Description: Antibacterial activity against glycopeptide-intermediate Staphylococcus aureus. The class given is functional.
In data set [16] the test system is Staphylococcus aureus. Description: Antibacterial activity against Staphylococcus aureus 1199. It is filed as functional.
The test system of data set [17] is Staphylococcus aureus. Description: Antibacterial activity against Staphylococcus aureus 1199-3. The class given is functional.
Data set [18] has as its system Staphylococcus aureus. Kind of data set: Antibacterial activity against Staphylococcus aureus 1199B. The class given is functional.
Data set [19] concerns Escherichia coli. Kind of data set: Antibacterial activity against Escherichia coli ATCC 8739 assessed as zone of inhibition at 50 ug/disc. Conditions: read-out: DIZ. The class given is functional.

Values after ≈ are worked out from the molar mass of the structure shown.

Histone-lysine N-methyltransferase, H3 lysine-79 specific, sequence (Q8TEK3 whole entry): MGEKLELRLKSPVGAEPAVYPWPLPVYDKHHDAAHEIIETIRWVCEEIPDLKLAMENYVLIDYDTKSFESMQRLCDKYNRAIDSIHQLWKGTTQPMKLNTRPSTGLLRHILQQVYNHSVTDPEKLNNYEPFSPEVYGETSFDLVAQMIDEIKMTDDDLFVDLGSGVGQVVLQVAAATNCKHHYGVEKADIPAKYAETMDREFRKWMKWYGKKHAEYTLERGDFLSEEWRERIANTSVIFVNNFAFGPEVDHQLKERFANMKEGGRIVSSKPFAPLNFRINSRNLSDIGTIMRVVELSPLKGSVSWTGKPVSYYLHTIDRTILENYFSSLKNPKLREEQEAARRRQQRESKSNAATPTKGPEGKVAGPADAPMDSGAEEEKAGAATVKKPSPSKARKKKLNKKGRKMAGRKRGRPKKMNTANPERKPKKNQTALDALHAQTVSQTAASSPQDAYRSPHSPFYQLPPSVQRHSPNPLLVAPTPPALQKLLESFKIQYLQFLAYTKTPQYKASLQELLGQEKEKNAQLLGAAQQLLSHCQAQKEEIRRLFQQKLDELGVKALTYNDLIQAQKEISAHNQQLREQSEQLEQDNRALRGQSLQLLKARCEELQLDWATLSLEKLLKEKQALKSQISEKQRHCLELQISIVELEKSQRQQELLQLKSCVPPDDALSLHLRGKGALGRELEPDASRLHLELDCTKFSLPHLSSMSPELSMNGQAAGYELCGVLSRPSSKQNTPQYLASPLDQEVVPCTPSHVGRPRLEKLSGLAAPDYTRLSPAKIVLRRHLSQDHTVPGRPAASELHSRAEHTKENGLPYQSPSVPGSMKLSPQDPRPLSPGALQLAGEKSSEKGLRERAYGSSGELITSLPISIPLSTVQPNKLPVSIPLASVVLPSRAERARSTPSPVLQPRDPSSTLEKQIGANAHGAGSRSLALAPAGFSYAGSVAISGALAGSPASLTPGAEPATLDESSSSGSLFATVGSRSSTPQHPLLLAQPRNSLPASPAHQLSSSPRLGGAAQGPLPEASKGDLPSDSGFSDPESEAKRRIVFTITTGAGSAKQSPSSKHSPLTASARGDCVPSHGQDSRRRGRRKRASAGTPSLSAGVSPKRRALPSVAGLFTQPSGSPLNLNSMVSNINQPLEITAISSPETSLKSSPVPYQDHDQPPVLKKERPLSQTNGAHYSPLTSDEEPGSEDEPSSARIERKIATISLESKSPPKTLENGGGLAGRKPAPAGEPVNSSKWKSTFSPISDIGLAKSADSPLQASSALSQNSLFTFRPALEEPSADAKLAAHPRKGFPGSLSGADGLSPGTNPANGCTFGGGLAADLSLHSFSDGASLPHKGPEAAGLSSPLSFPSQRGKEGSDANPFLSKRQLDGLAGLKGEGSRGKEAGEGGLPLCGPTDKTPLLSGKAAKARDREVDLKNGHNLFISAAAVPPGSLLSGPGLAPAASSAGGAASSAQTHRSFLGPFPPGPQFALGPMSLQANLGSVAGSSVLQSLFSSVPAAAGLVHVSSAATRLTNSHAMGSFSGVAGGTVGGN

With `Clc1ccc2c(NCCOCCOCCNc3ccnc4cc(Cl)ccc34)ccnc2c1`, the IC50 in the data set with Plasmodium falciparum [1] and with Plasmodium falciparum [2] was 1.2 to 89 nM throughout.
For `Clc1ccc2c(NCCOCCNc3ccnc4cc(Cl)ccc34)ccnc2c1`, the IC50 in the data set with Plasmodium falciparum [1] and with Plasmodium falciparum [2] was 1.2 to 89 nM throughout.
For `CN(CCCNc1ccnc2cc(Cl)ccc12)CCCNc1ccnc2cc(Cl)ccc12`, the IC50 in the data set on Plasmodium falciparum [1] and in the data set on Plasmodium falciparum [2] was 1.2 to 89 nM in each case.
In turn, `Clc1ccc2c(NCCCN3CCN(CCCNCc4ccnc5ccccc45)CC3)ccnc2c1` displayed an IC50 with Plasmodium falciparum [3] of 20.1 nM. The same compound came in with a CC50 in data set [4] of 16400 nM. For the same compound, the selectivity ratio in data set [5] worked out at 816.
`Cc1cc(N)c2cc(Nc3ccnc(Nc4ccc5nc(C)cc(N)c5c4)n3)ccc2n1` came in with an IC50 in data set [6] of 1080 nM.
Regarding `Clc1ccc2c(NCCCCCCNCCCCCCNc3ccnc4cc(Cl)ccc34)ccnc2c1`, the 50% inhibitory concentration (IC50) in the data set on Plasmodium falciparum [1] and in the data set with Plasmodium falciparum [2] was 1.2 to 89 nM in each case.
For `Clc1ccc2c(NCCCOCCOCCOCCCNc3ccnc4cc(Cl)ccc34)ccnc2c1`, the 50% inhibitory concentration (IC50) in the data set on Plasmodium falciparum [1] and in the data set on Plasmodium falciparum [2] was 1.2 to 89 nM throughout.
Consider `Clc1ccc2c(NCCCNCCNc3ccnc4cc(Cl)ccc34)ccnc2c1`, for which the IC50 in the data set with Plasmodium falciparum [1] and in the data set on Plasmodium falciparum [2] was 1.2 to 89 nM in each case.
Take `O=C(O)c1cn(C2CC2)c2cc(N3CCN(c4nc(N5CCN(c6cc7c(cc6F)c(=O)c(C(=O)O)cn7C6CC6)CC5)c(F)c(S(=O)(=O)c5ccccc5)c4F)CC3)c(F)cc2c1=O`: the MIC with Staphylococcus aureus [7], in the data set with Klebsiella pneumoniae, in the data set with Shigella, in the data set on Enterococcus, with Proteus and with Escherichia coli [8] was 0.25 to 2 µg/mL (≈ 0.274 to 2.19 µM) each time.
As for `Clc1ccc2c(NCCCOCCCCOCCCNc3ccnc4cc(Cl)ccc34)ccnc2c1`, the IC50 in the data set with Plasmodium falciparum [1] and in the data set on Plasmodium falciparum [2] was 1.2 to 89 nM throughout.
On to `CCC(C)[C@H](Nc1ccnc2cc(Cl)ccc12)C(=O)NCCNc1ccnc2cc(Cl)ccc12` (stereo not given in full), for which the IC50 with Plasmodium falciparum [9] is 26 nM; with Plasmodium falciparum [10] it was 24 nM.
In [6], `COc1cc(C)nc2ccc(Nc3cc(C)nc(Nc4ccc5nc(C)cc(OC)c5c4)n3)cc12` registered an IC50 of 21700 nM.
Still for that read-out and setting: under `Cc1cc(Nc2ccc3nc(C)cc(O)c3c2)nc(Nc2ccc3nc(C)cc(O)c3c2)n1` stands 4350 nM.
As to `C[C@H]1COc2c(N3CCN(C)CC3)c(F)cc3c(=O)c(-c4nn5c(-c6cn(C7CC7)c7cc(N8CCNCC8)c(F)cc7c6=O)nnc5s4)cn1c23`, in the data set on HL-60, half-maximal inhibition (IC50) was put at 120 nM.
Same read-out and setting: under `CN1CCN(c2cc3c(cc2F)c(=O)c(-c2nn4c(-c5cn(C6CC6)c6cc(N7CCNCC7)c(F)cc6c5=O)nnc4s2)cn3C2CC2)CC1` stands 540 nM.
In the data set with Plasmodium vinckei, `c1ccc2c(c1)nc(NCCCN1CCN(CCCNc3nc4ccccc4c4sccc34)CC1)c1ccsc12` gave an ED50 of 30 mg/kg.
`O=C(O)c1cn(C2CC2)c2cc(N3CCN(c4nc(Cl)nc(N5CCN(c6cc7c(cc6F)c(=O)c(C(=O)O)cn7C6CC6)CC5)n4)CC3)c(F)cc2c1=O`: the MIC against Staphylococcus aureus [7], against Klebsiella pneumoniae, against Shigella, in the data set with Enterococcus, against Proteus and in the data set with Escherichia coli [8] was 0.25 to 2 µg/mL (≈ 0.323 to 2.58 µM) in each case.
Turning to `Cc1cc(N)c2cc(Nc3cc(Nc4ccc5nc(C)cc(N)c5c4)ncn3)ccc2n1`, the IC50 in [6] amounted to 1060 nM; in the data set on Kasumi 1, 45800 nM; in the data set with MV4-11, 30500 nM.
On to `FC(F)(F)c1ccc2c(N[C@@H]3CCCC[C@H]3Nc3ccnc4cc(C(F)(F)F)ccc34)ccnc2c1`, for which the ED50 in the data set with Plasmodium berghei turned out to be 5.9 mg/kg.
The compound `Cc1cc(Nc2ccc3nc(C)cc(N)c3c2)nc(Nc2ccc3nc(C)cc(N)c3c2)n1` displayed an IC50 in [6] of 1500 nM.
As to `CCC1C[C@@H]2CC[C@H]1CC2C(O)c1ccnc2c(NC(=O)CCCCC(=O)Nc3cccc4c(C(O)C5C[C@@H]6CC[C@H]5C(CC)C6)ccnc34)cccc12` (stereo not given in full), the half-maximal inhibitory concentration (IC50) in the data set with Plasmodium falciparum [11] is 50 nM; with Plasmodium falciparum [12], 20 nM; in the data set on Plasmodium falciparum [9], 20 nM.
Regarding `CCN(CC)CCCC(C)Nc1cc(CCCCCCCCCCCCc2cc(NC(C)CCCN(CC)CC)c3ccccc3n2)nc2ccccc12` (stereo not given), in the data set on Plasmodium falciparum [13], the “Ratio IC50” value is 31.7.
Consider `Clc1ccc2c(NCCNc3ccnc4cc(Cl)ccc34)ccnc2c1`, for which the values for the GI50 in the data set on MDA-MB-468 and with MCF7 were 7350 nM and 14800 nM, respectively.
For `Clc1ccc2c(N[C@@H]3CCCC[C@H]3Nc3ccnc4cc(Cl)ccc34)ccnc2c1` (relative stereo), the IC50 in the data set on Plasmodium falciparum [1] stood at 1 nM; with Plasmodium falciparum [2], 1.4 nM. The ED50 in the data set with Plasmodium berghei came out at 3 mg/kg.
As for `O=C(O)c1cn(C2CC2)c2cc(N3CCNCC3)c(F)cc2c1=O` [CIPROFLOXACIN], in the data set on Staphylococcus aureus [14], the zone of inhibition at 100 µg/disc was found to be 38 mm. Moreover, the MIC with Staphylococcus aureus [15] was over 16 µg/mL; with Staphylococcus aureus [16] it was 0.125 to 16 µg/mL (≈ 0.377 to 48.3 µM); in the data set on Staphylococcus aureus [17] it was 0.125 to 16 µg/mL (≈ 0.377 to 48.3 µM); in the data set on Staphylococcus aureus [18], 0.125 to 16 µg/mL (≈ 0.377 to 48.3 µM). Further, the zone of inhibition at 50 µg/disc in the data set with Escherichia coli [19] was determined as 36 mm.
For `CCn1cc(C(=O)O)c(=O)c2cc(F)c(N3CCNCC3)cc21` [NORFLOXACIN], the MIC was over 16 µg/mL in the data set with Staphylococcus aureus [15], 0.125 to 16 µg/mL (≈ 0.391 to 50.1 µM) against Staphylococcus aureus [16], 0.125 to 16 µg/mL (≈ 0.391 to 50.1 µM) against Staphylococcus aureus [17] and 0.125 to 16 µg/mL (≈ 0.391 to 50.1 µM) with Staphylococcus aureus [18].
For the compound `CCn1cc(C(=O)O)c(=O)c2cnc(N3CCNCC3)nc21` [PIPEMIDIC ACID], the minimal inhibitory concentration (MIC) against Staphylococcus aureus [15] is over 16 µg/mL; with Staphylococcus aureus [16], 0.125 to 16 µg/mL (≈ 0.412 to 52.7 µM); against Staphylococcus aureus [17], 0.125 to 16 µg/mL (≈ 0.412 to 52.7 µM); in the data set with Staphylococcus aureus [18], 0.125 to 16 µg/mL (≈ 0.412 to 52.7 µM).
